Test results as given in patent US6448450B1, “1-(3,5-dimethoxyphenyl)-2-(4-hydroxyphenyl)-ethylene for diabetes treatment” (Calyx Therapeutics, Inc., priority 1998, dated 2002).

Columns and labels:
[1] = cited from earlier work
[2] = system: STZ induced diabetic rats; design: blood glucose BEFORE / blood glucose AFTER: unit not given here; details: Pter. 20 mg/kg, metformin 30 mg/kg, cited from earlier work; for blood glucose AFTER: after treatment; for blood glucose BEFORE: before treatment
[3] = system: STZ induced diabetic rats; experiment: Effect on streptozotocin-induced diabetic rats, comparison with metformin; format: in vivo; details: 20 mg/kg vs metformin 30 mg/kg
Description: (§1) Streptozotocin (STZ) induced diabetic rats were made by injecting STZ (40 mg/kg/bw) intravenously. Following verification of blood glucose levels after 72 hours, diabetic rats showing fasting blood glucose levels above 200 mg/dl were divided into two groups. The diphenylethylene was administered to one group in a dose of 20 mg/kg/bw in propyleneglycol. The control group received only propyleneglycol. Soon after the administration of the compound, glucose tolerance testing was conducted by a glucose load of 2 g/kg/bw and blood glucose levels were monitored at zero, 30, 60, 120 and 180 minutes by milking the tail of the rats.
The same test was conducted on STZ induced diabetic rats comparing the diphenylethylene with the commercial product metformin. The diphenylethylene was administered at a dose of 20 mg/kg and metformin was administered at the dosage of 30 mg/kg.

[4] = system: spontaneously diabetic (db/db) mice; experiment: Blood glucose in spontaneously diabetic (db/db) mice; format: in vivo; details: 20 mg/kg/bw/ip in propyleneglycol, within 24 hours
Description: Six spontaneously diabetic (db/db) mice were divided into two groups of three each. One test group receives the diphenylethylene (20 mg/kg/bw/ip) in propyleneglycol. The control group received an equal volume of propyleneglycol. Soon after the administration of the test materials, blood glucose levels were monitored at 1 hour (see FIG. 2A) and 24 hours (see FIG. 2B) after treatment. The diphenylethylene reduced the blood glucose level by over 50 percent within 24 hours, thus establishing its antihyperglycemic effect.

[5] = system: Streptozotocin (STZ) induced diabetic rats; experiment: Glucose tolerance test in STZ induced diabetic rats; format: in vivo; details: 20 mg/kg/bw in propyleneglycol, glucose load 2 g/kg/bw, monitored 0-180 minutes, FIG. 1
Description: as §1

| Structure (SMILES) | water solubility [1] | % CHANGE of blood glucose [2] [%] | blood glucose AFTER [2] | blood glucose BEFORE [2] | glucose levels compared with the commercial product (metformin) [3] | reduction of blood glucose level [4] | blood glucose levels versus control group after glucose load [5] |
| --- | --- | --- | --- | --- | --- | --- | --- |
| COc1cc(/C=C/c2ccc(O)cc2)cc(OC)c1 [pterostilbene, 3,5-dimethoxy-4′-hydroxy-trans-stilbene] | water insoluble | – | – | – | – | – | – |
| CN(C)C(=N)N=C(N)N [Metformin, metformin, reference compound] | – | −48 | 188 ± 36 | 358 ± 24 | – | – | – |
| COc1cc(/C=C/c2ccc(O)cc2)cc(OC)c1 [diphenylethylene, 1-(3,5-dimethoxyphenyl)-2-(4-hydroxyphenyl)ethylene] | – | −42 | 219 ± 48 | 377 ± 37 | equivalent to those obtained by the commercial product | over 50% | stayed consistently below the blood glucose levels in the control group |
